In this assay the target is T1, HDAC10 (Homo sapiens, UniProt Q969S8).
T1 construct: purchased Eurofins Pharma Discovery Services 2662
T1 sequence (Q969S8 1-669): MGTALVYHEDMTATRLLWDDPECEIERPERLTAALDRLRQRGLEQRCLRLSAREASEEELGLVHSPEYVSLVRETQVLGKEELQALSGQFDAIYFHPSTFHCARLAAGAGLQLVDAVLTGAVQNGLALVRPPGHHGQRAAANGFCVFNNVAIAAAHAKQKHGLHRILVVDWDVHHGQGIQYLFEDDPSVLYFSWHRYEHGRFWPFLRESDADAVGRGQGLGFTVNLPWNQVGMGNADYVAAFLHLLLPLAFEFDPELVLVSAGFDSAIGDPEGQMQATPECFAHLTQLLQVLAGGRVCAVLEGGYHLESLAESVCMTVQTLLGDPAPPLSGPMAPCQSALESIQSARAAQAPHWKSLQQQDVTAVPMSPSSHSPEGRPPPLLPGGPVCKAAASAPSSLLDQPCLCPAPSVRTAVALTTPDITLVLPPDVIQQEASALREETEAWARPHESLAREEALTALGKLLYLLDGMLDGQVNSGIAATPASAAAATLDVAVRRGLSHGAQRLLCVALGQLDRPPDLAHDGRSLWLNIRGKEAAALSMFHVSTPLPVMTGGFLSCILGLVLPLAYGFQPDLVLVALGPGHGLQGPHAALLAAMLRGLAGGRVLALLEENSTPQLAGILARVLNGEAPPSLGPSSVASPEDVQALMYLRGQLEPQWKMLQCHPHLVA
The assay is described as follows: HDAC enzymatic activity (Eurofins). In kind it is biochemical.

One may read the IC50 as the concentration that gives 50% inhibition. Higher therefore signals weaker potency in that assay. On to `O=C(CCCCCCNC(=O)c1cnc(N(c2ccccc2)c2ccccc2)nc1)NO` [Ricolinostat], for which the IC50 stood at 0.901 µM.

The values are drawn from paper PMC9555642 (PLoS ONE, 2022).
